26 compounds from US9206159B2, “Piperazine-piperidine compounds as hepatitis C virus inhibitors” (Theravance Biopharma R&D IP, LLC, priority 2012, dated 2015) can be followed below.

The test system of this assay is HCV genotype 1a replicon cell line. Nature of the assay: HCV Genotype 1a Replicon Assay. The assay is classed as cell-based, hepatitis C virus. As to conditions: Huh7.5 cell background, NS3-specific protease activity in lysates, 48 or 72 hours; for EC50: Hepatitis C virus, read-out: Genotype 1a (pEC50 class) (converted). On the procedure: Assay 2: HCV Genotype 1a Replicon Assay
The HCV genotype 1a replicon cell line was obtained from Apath LLC (APC89; Huh7.5 cell background). This subgenomic replicon contains the N-terminus of the HCV core protein fused to the neomycin-resistance selectable marker. The EMCV IRES lies downstream and drives expression of the non-structural proteins NS3-NS5B. Compound potencies were determined using the NS3-specific protease activity in lysates as a measurement of compound inhibition of replicon levels.
Cells were grown at 37° C. in a 5% CO2 humidified incubator in DMEM (Invitrogen) with 10% FBS (HyClone), 1×NEAA (Invitrogen), 1× Pen-Strep (Invitrogen), and 850 μg/mL G418 (Invitrogen). On day 1 of the assay, cells were plated at 15,000 cells/well in black 96-well tissue culture plates (Costar) in 200 μL media lacking G418. Four hours later, once the cells had adhered, the media was removed and replaced with media (no G418) containing dose-responses of test compounds. Compounds were initially diluted in DMSO and then diluted another 200× in media to bring the final DMSO concentration down to 0.5%. The cells were incubated with test compounds for 48 or 72 hours. At the end of the incubation period, media and compound were removed from the plates.
To determine the NS3-specific protease activity in lysates, the cells were lysed at room temperature in 50 μL/well of 50 mM Hepes pH 7.5, 150 mM NaCl, 15% Glycerol, 0.15% Triton X-100, 10 mM DTT for 20 minutes with shaking. 50 μL of an NS3/4a protease-specific FRET substrate (Anaspec RET SI Cat#22991) was then added to the wells at a final concentration of 15 μM. The plates were incubated at 37° C. for 20 minutes, which corresponds to a timepoint at which the protease activity is still in the linear phase. Protease activity was determined by measuring fluorescence (Excitation: 340 nm; Emission: 509 nm).
To analyze the data, the fluorescence was plotted vs. the compound concentration, and EC50 values were determined from a 4-parameter robust fit model using GraphPad Prism software.

For the compound `COC(=O)N[C@H](C(=O)N1CCC[C@H]1c1nc(-c2ccc(-c3ccc(NC(=O)N4CCC(N5CCN(C(=O)[C@H]6CC6(C)C)[C@H](C)C5)CC4)cc3OC(F)(F)F)cc2)c[nH]1)C(C)C` [Example 3-8], the “Genotype 1a (pEC50 class)” value was “B (B represents pEC50 between 8 and 9 (EC50 between 1 and 10 nM))”.
Same read-out and setting: next, `CNC(=O)N1CCC(N2CCN(C(=O)Nc3cc(OC(F)(F)F)c(-c4ccc(-c5c[nH]c([C@@H]6C[C@H](C)CN6C(=O)[C@@H](NC(=O)OC)C(C)C)n5)cc4)cc3F)CC2)CC1` [Example 2-4]: “D (D represents pEC50>10 (EC50<0.1 nM))”.
On to `COC(=O)N[C@H](C(=O)N1CCC[C@H]1c1nc(-c2ccc(-c3ccc(NC(=O)N4CCN(C5CCN(C(=O)C6CC6)CC5)C[C@H]4C)cc3OC(F)(F)F)cc2)c[nH]1)C(C)C` [Example 1-18], for which the “Genotype 1a (pEC50 class)” value was “C (C represents pEC50 between and 9 and about 10, (EC50 between 1 nM and 0.1 nM))”.
On the same count and under the same terms, the same measure for `COC(=O)N[C@H](C(=O)N1C[C@@H](C)C[C@H]1c1nc(-c2ccc(-c3cc(F)c(NC(=O)N4CCC(N5CCN(C(=O)[C@H]6CC6(C)C)CC5)CC4)cc3OC(F)(F)F)cc2)c[nH]1)C(C)C` [Example 4-8]: “C (C represents pEC50 between and 9 and about 10, (EC50 between 1 nM and 0.1 nM))”; for `COC(=O)N[C@H](C(=O)N1CCC(N2CCN(C(=O)Nc3ccc(-c4ccc(-c5c[nH]c([C@@H]6CCCN6C(=O)[C@@H](NC(=O)OC)C(C)C)n5)cc4)cc3)CC2)CC1)C(C)C` [Example 1-6]: “A (A represents a pEC50 value between 6 and 8 (EC50 between 1 μM and 10 nM))”.
Consider `COC(=O)N[C@H](C(=O)N1C[C@@H](C)C[C@H]1c1nc(-c2ccc(-c3cc(Cl)c(NC(=O)N4CCC(N5CCN(C(=O)C6CC6)CC5)CC4)cc3OC(F)(F)F)cc2)c[nH]1)C(C)C` [Example 4-15], for which the “Genotype 1a (pEC50 class)” value is “B (B represents pEC50 between 8 and 9 (EC50 between 1 and 10 nM))”.
As to `COC(=O)N[C@H](C(=O)N1C[C@@H](C)C[C@H]1c1nc(-c2ccc(-c3cc(Cl)c(NC(=O)N4CCN(C5CCN(C(=O)C6CCC6)CC5)CC4)cc3OC(F)(F)F)cc2)c[nH]1)C(C)C` [Example 6], the EC50 is 0.1 to 1 nM.
As for `CNC(=O)N1CCN(C2CCN(C(=O)Nc3cc(OC(F)(F)F)c(-c4ccc(-c5c[nH]c([C@@H]6C[C@H](C)CN6C(=O)[C@@H](NC(=O)OC)C(C)C)n5)cc4)cc3Cl)CC2)C[C@@H]1C` [Example 4-4], the “Genotype 1a (pEC50 class)” value is “B (B represents pEC50 between 8 and 9 (EC50 between 1 and 10 nM))”.
With `CNC(=O)N1CCC(N2CCN(C(=O)Nc3ccc(-c4ccc(-c5c[nH]c([C@@H]6CCCN6C(=O)[C@@H](NC(=O)OC)C(C)C)n5)cc4)c(OC(F)(F)F)c3)CC2)CC1` [Example 1-24], the “Genotype 1a (pEC50 class)” value was “C (C represents pEC50 between and 9 and about 10, (EC50 between 1 nM and 0.1 nM))”.
Regarding `COC(=O)N[C@H](C(=O)N1C[C@@H](C)C[C@H]1c1nc(-c2ccc(-c3cc(Cl)c(NC(=O)N4CCC(N5CCN(C(=O)C(C)(C)C)C[C@@H]5C)CC4)cc3OC(F)(F)F)cc2)c[nH]1)C(C)C` [Example 12, [(S)-1-((2S,4S)-2-{4-[5′-Chloro-4′-({4-[(S)-4-(2,2-dimethyl-propionyl)-2-methyl-piperazin-1-yl]-piperidine-1-carbonyl}-amino)-2′-trifluoromethoxy-biphenyl-4-yl]-1H-imidazol-2-yl}-4-methyl-pyrrolidine-1-carbonyl)-2-methyl-propyl]-carbamic acid methyl ester], the EC50 is 0.1 to 1 nM.
Regarding `COC(=O)N[C@H](C(=O)N1C[C@@H](C)C[C@H]1c1nc(-c2ccc(-c3cc(F)c(NC(=O)N4CCN(C5CCN(C(=O)OC(C)(C)C)CC5)CC4)cc3OC(F)(F)F)cc2)c[nH]1)C(C)C` [Example 2-2], the “Genotype 1a (pEC50 class)” value is reported as “D (D represents pEC50>10 (EC50<0.1 nM))”.
On the same count and under the same terms, the same measure for `COC(=O)N[C@H](C(=O)N1C[C@@H](C)C[C@H]1c1nc(-c2ccc(-c3ccc(NC(=O)N4CCN(C5CCN(C(=O)C(C)(C)CO)CC5)CC4)cc3OC(F)(F)F)cc2)c[nH]1)C(C)C` [Example 2-29]: “C (C represents pEC50 between and 9 and about 10, (EC50 between 1 nM and 0.1 nM))”; for `COC(=O)N[C@H](C(=O)N1C[C@@H](C)C[C@H]1c1nc(-c2ccc(-c3cc(Cl)c(NC(=O)N4CCC(N5CCN(C(=O)C(C)(C)C)[C@@H](C)C5)CC4)cc3OC(F)(F)F)cc2)c[nH]1)C(C)C` [Example 4-3]: “B (B represents pEC50 between 8 and 9 (EC50 between 1 and 10 nM))”.
On to `COC(=O)N[C@H](C(=O)N1C[C@@H](C)C[C@H]1c1nc2c(ccc3cc(-c4ccc(NC(=O)N5CCN(C6CCN(C(=O)C7CC7)CC6)CC5)cc4OC(F)(F)F)ccc32)[nH]1)C1CCOCC1` [Example 7-4], for which the EC50 is under 0.1 nM.
As for `COC(=O)N[C@H](C(=O)N1C[C@@H](C)C[C@H]1c1nc(-c2ccc(-c3cc(F)c(NC(=O)N4CCN(C5CCN(C(=O)C6CC6(Cl)Cl)CC5)CC4)cc3OC(F)(F)F)cc2)c[nH]1)C(C)C` (some centres unmarked) [Example 2-15], the “Genotype 1a (pEC50 class)” value was “C (C represents pEC50 between and 9 and about 10, (EC50 between 1 nM and 0.1 nM))”.
Same read-out and setting: next, `COC(=O)N[C@H](C(=O)N1C[C@@H](C)C[C@H]1c1nc(-c2ccc(-c3cc(Cl)c(NC(=O)N4CCC(N5CCN(C(=O)OC(C)(C)C)[C@@H](C)C5)CC4)cc3OC(F)(F)F)cc2)c[nH]1)C(C)C` [Example 4-1]: “A (A represents a pEC50 value between 6 and 8 (EC50 between 1 μM and 10 nM))”.
As for `COC(=O)N[C@H](C(=O)N1CCC[C@H]1c1nc(-c2ccc(-c3ccc(NC(=O)N4CCN(C5CCN(C(=O)c6c[nH]cn6)CC5)CC4)cc3)cc2)c[nH]1)C(C)C` [Example 1-5], the “Genotype 1a (pEC50 class)” value is “B (B represents pEC50 between 8 and 9 (EC50 between 1 and 10 nM))”.
Same read-out and setting: the same measure for `COC(=O)N[C@H](C(=O)N1C[C@@H](C)C[C@H]1c1nc(-c2ccc(-c3ccc(NC(=O)N4CCN(C5CCN(C(=O)C6CC6(F)F)CC5)CC4)cc3OC(F)(F)F)cc2)c[nH]1)C(C)C` (some centres unmarked) [Example 2-10]: “C (C represents pEC50 between and 9 and about 10, (EC50 between 1 nM and 0.1 nM))”; for `COC(=O)N[C@H](C(=O)N1CCC[C@H]1c1nc(-c2ccc(-c3ccc(NC(=O)N4CCN(C5CCN(C(=O)OC)CC5)CC4)cc3)cc2)c[nH]1)C(C)C` [Example 1-9]: “B (B represents pEC50 between 8 and 9 (EC50 between 1 and 10 nM))”; for `COC(=O)N[C@H](C(=O)N1CCC[C@H]1c1nc(-c2ccc(-c3ccc(NC(=O)N4CCN(C5CCN(C(=O)c6c[nH]cn6)CC5)CC4)cc3OC(F)(F)F)cc2)c[nH]1)C(C)C` [Example 1-23]: “C (C represents pEC50 between and 9 and about 10, (EC50 between 1 nM and 0.1 nM))”.
For the compound `COC(=O)N[C@H](C(=O)N1C[C@@H](C)C[C@H]1c1nc2c(ccc3cc(-c4ccc(NC(=O)N5CCN(C6CCN(C(=O)C(C)(C)C)CC6)CC5)cc4OC(F)(F)F)ccc32)[nH]1)C(C)C` [Example 15, [(S)-1-((2S,4S)-2-{7-[4-({4-[1-(2,2-Dimethyl-propionyl)-piperidin-4-yl]-piperazine-1-carbonyl}-amino)-2-trifluoromethoxy-phenyl]-3H-naphtho[1,2-d]imidazol-2-yl}-4-methyl-pyrrolidine-1-carbonyl)-2-methyl-propyl]-carbamic acid methyl ester], the EC50 is under 0.1 nM.
For `CNC(=O)N1CCC(N2CCN(C(=O)Nc3ccc(-c4ccc(-c5c[nH]c([C@@H]6CCCN6C(=O)[C@@H](NC(=O)OC)C(C)C)n5)cc4)cc3)CC2)CC1` [Example 1-7], the “Genotype 1a (pEC50 class)” value was “B (B represents pEC50 between 8 and 9 (EC50 between 1 and 10 nM))”.
The same measure, in the same setting: next, `COC(=O)N[C@H](C(=O)N1C[C@@H](C)C[C@H]1c1nc(-c2ccc(-c3cc(Cl)c(NC(=O)N4CCN(C5CCN(C(=O)C6CC67CC7)CC5)CC4)cc3OC(F)(F)F)cc2)c[nH]1)C(C)C` (some centres unmarked) [Example 2-24]: “B (B represents pEC50 between 8 and 9 (EC50 between 1 and 10 nM))”; `COC(=O)N[C@H](C(=O)N1C[C@@H](C)C[C@H]1c1nc(-c2ccc(-c3cc(F)c(NC(=O)N4CCN(C5CCN(C(=O)C6CC6(F)Cl)CC5)CC4)cc3OC(F)(F)F)cc2)c[nH]1)C(C)C` (some centres unmarked) [Example 2-14]: “C (C represents pEC50 between and 9 and about 10, (EC50 between 1 nM and 0.1 nM))”.
Consider `COC(=O)NC(C(=O)N1CCCC1c1nc(-c2ccc(-c3ccc(NC(=O)N4CCN(C5CCN(C(=O)C6CC6)CC5)C(C)C4)cc3OC(F)(F)F)cc2)c[nH]1)C(C)C` (centres unmarked) [Example 1-40], for which the “Genotype 1a (pEC50 class)” value is “B (B represents pEC50 between 8 and 9 (EC50 between 1 and 10 nM))”.
On the same count and under the same terms, the same measure for `COC(=O)N[C@H](C(=O)N1CCC[C@H]1c1nc(-c2ccc(-c3ccc(NC(=O)N4CCC(N5CCN(C(=O)OC(C)(C)C)[C@H](C)C5)CC4)cc3OC(F)(F)F)cc2)c[nH]1)C(C)C` [Example 3-7]: “B (B represents pEC50 between 8 and 9 (EC50 between 1 and 10 nM))”.
